Source: patent US20160184276A1, “Sphingosine kinase inhibition for the treatment and prevention of obstetrical disorders” (priority 2014, published 2016)
“Also recorded” adds a separate entry of the source.

What was measured:
[1] = system: Tnfα, Il-1β, Il-6 and ECE-1 in placentas; test: Western blot analysis of placental lysates from LPS-stimulated mice; format: in vivo; conditions: SKI II treated group vs LPS control group
Protocol: (§1) In Vivo Assay. A total of 17 timed pregnant embryonic day (E) 15.5 mice, weighing between 28 and 35 g, were used for in vivo studies. The control group (n=7) was injected intraperitoneally (ip) with 50 mg/kg lipopolysaccharide (LPS) (serotype 026:B6; Sigma) dissolved in 0.5 ml PBS at T=0 and 50 μl PEG 400 at T=1 and 7 h. The treatment group (n=7) was also injected ip with the same dose of LPS and then injected with 50 mg/kg SphK inhibitor (SKI II) dissolved in PEG 400 at T=1 and 7 h. The sham group (n=3) was injected ip with 0.5 ml PBS at T=0 and 50 μl PEG 400 at T=1 and 7 h. After injections at T=7 h, mice were continuously observed for time of delivery and number of pups dropped. […] All mice were euthanized by carbon dioxide asphyxiation and necropsied to confirm pregnancy and the number of pups retained in utero was recorded. The retained placentas and uteri were harvested and stored at −80° C. or in 10% neutral buffered formalin at room temperature.
Gel Electrophoresis. Frozen placentas were allowed to thaw on ice. Tissues were homogenized in 0.25 ml ice cold lysis buffer, using a Polytron homogenizer. The samples were homogenized on ice for 2 min at 15 min intervals. This procedure was continued for 2 h and the final homogenates were centrifuged at 10,000×g for 10 min. Volumes of supernatant containing […] of protein based on BCA assay, using bovine serum albumin as standard, were diluted in_NuPAGE® LDS sample buffer and the samples were heated at 95° C. for 5 minutes. Bis-Tris gels were used for protein separation. Gel electrophoresis was carried out in an XCell SureLock Mini-Cell apparatus. The gels were allowed to run for 45 minutes with MOPS running buffer at 125 mA and 200V. Proteins were then transferred to a polyvinylidene difluoride (PVDF) membrane, using an XCell II Blot Module. Transfer was carried out for 2 h on ice at a 170 mA current and a constant voltage of 30 V with NuPAGE transfer buffer
Western Blot Analysis. […] The membranes were analyzed for different proteins using their respective primary antibodies, i.e. TNFα, IL-1β, IL-6, IL-10 and ECE-1 diluted in the blocker solution overnight at 4° C. […] They were then treated with ECL Plus western blotting detection system and the chemiluminescence produced by the chemical reaction was detected by exposure to an autoradiography film. […] The protein content was quantified using Image J software (from NIH). […]
(§2) Statistical Analysis. For in vivo studies, the effect of SKI II on the percent of LPS stimulated mice delivering and on the percent of pups rescued from spontaneous abortion was evaluated with the Chi square and Fisher exact tests, respectively. […]

[2] = system: Tnfα, Il-1β, Il-6 in placental labyrinth; test: Immunohistochemistry of cytokines in placental labyrinth; format: in vivo, mice; conditions: SKI II vs LPS
Protocol: as §1
Immunohistochemistry (IHC). Formalin fixed paraffin-embedded tissue sections were used for IHC. The sections were deparaffinized by washing in xylene for 3 min. They were then rehydrated by washing in 100% isopropyl alcohol (2 changes), 95% alcohol, 80% alcohol, 70% alcohol and distilled water for 3 min each. The sections were incubated for 5 min with peroxidase block (3% hydrogen peroxide in water) and washed in distilled water for 3 min. […] Image-Pro Premier DAB analysis software was used for quantification of the results. […]
Statistical Analysis. For in vivo studies, the effect of SKI II on the percent of LPS stimulated mice delivering and on the percent of pups rescued from spontaneous abortion was evaluated with the Chi square and Fisher exact tests, respectively. Differences in rates of PTB and rates of pups delivered over time were evaluated with log-rank (Mantel-Cox) or Gehan-Breslow-Wilcoxon test. […] Differences in mean expression of cytokine proteins in immunoblots and in immunohistochemistry were determined using ANOVA with Tukey's multiple comparison test.

[3] = system: inflammatory cells (neutrophils) in placental labyrinth; test: Histology (H & E): inflammatory cell infiltration of placental labyrinth; format: in vivo; conditions: SKI II vs LPS-induced mice; P<0.05
Protocol: as §1, with “The retained placentas and uteri were harvested and stored at −80° C. or in 10% neutral buffered formalin at room temperature.” left out
Histology. […] The number of polymorphonuclear neutrophils (PMNs) were counted in the three fields and the average value was recorded. Based on the average number of neutrophils per 400× field recorded, the slides were assigned grades as follows: 0:0-5 cells, 1:6-50 cells, 2:51-100 and 3:greater than 100. […]
as §2

[4] = system: LPS-stimulated timed pregnant mice; test: LPS-induced preterm birth in timed pregnant mice (in vivo assay)
Protocol: as §1
Statistical Analysis. For in vivo studies, the effect of SKI II on the percent of LPS stimulated mice delivering and on the percent of pups rescued from spontaneous abortion was evaluated with the Chi square and Fisher exact tests, respectively. Differences in rates of PTB and rates of pups delivered over time were evaluated with log-rank (Mantel-Cox) or Gehan-Breslow-Wilcoxon test. The U-test along with Analysis of Variance (ANOVA) and Tukey's multiple comparison test were used to evaluate differences in inflammatory infiltration in histologic sections. Differences in mean expression of cytokine proteins in immunoblots and in immunohistochemistry were determined using ANOVA with Tukey's multiple comparison test.

Oc1ccc(Nc2nc(-c3ccc(Cl)cc3)cs2)cc1 [SKI II]
ECE-1 expression in placenta (Western blot) [1]: clearly suppressed; also recorded: significantly suppressed
Il-1β expression in placental lysates (Western blot) ([1]; P<0.05): reduced; also recorded: significantly suppressed
Il-6 expression in placental lysates (Western blot) ([1]; P<0.05): reduced; also recorded: significantly suppressed
Tnfα expression in placental lysates (Western blot) ([1]; P<0.05): reduced; also recorded: significantly suppressed
Placental labyrinthine level of Il-1β (immunohistochemistry) ([2]; P<0.0001): significantly reduced; also recorded: significantly suppressed
Placental labyrinthine level of Tnfα (immunohistochemistry) ([2]; P<0.0001): significantly reduced; also recorded: significantly suppressed
Placental labyrinthine level of Il-6 (immunohistochemistry) ([2]; P<0.01): significantly reduced; also recorded: significantly suppressed
Inflammatory cell infiltrate in placental labyrinth [3]: significantly reduced; also recorded: subsides significantly
Macroscopic congenital anomalies in pups ([4]; 97 pups of LPS control and SKI II groups): no macroscopic congenital anomalies
Percent of mice delivered prematurely ([4]; LPS 50 mg/kg, SKI II 50 mg/kg at T=1 and 7 h, 1 out of 7 mice, 24 h): 14%
Percent of pups dropped prematurely ([4]; LPS 50 mg/kg, SKI II 50 mg/kg at T=1 and 7 h, 2 out of 50 pups, 24 h): 4%
Rate of pup survival (Kaplan-Meier survival curves, log rank test) ([4]; SKI II treated vs LPS control dams, P<0.0001): statistically significant difference; also recorded: significantly improved
Litter size, fetal growth and development ([4]; observed throughout the study): No significant changes
